The values below come from US20120245161A1 (SANOFI, priority 2009, published 2012).

Values joined by “and” are separate entries in the source; they are usually repeats but may differ in a detail not shown here. Equal values may be shown once. Where a name gives a salt, the structure may show the parent alone. Read-outs that look alike come from different tables or passages of the source.

For the assay, the target named is T1, recombinant human beta tryptase (Homo sapiens, UniProt P20231).
T1 construct: made in house; host or cells: yeast cells
T1 sequence (P20231 31-275): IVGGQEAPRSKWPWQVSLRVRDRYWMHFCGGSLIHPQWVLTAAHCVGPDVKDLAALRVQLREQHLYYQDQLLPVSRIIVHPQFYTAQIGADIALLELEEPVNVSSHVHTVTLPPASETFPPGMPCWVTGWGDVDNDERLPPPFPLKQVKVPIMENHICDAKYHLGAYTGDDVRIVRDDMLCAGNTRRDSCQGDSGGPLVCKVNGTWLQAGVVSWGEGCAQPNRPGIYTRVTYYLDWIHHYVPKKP
The experiment in a line: beta-Tryptase inhibition, chromogenic enzyme assay (substrate S2366, read at 405 nm). The assay is classed as biochemical. The text has this:
Inhibition of this catalytic activity may be measured by the in vitro enzyme assay and the cellular assay.
Tryptase inhibition activity is confirmed using either isolated human lung tryptase or recombinant human beta tryptase expressed in yeast cells. Essentially equivalent results are obtained using isolated native enzyme or the expressed enzyme. The assay procedure employs a 96 well microplate (Costar 3590) using L-pyroglutamyl-L-prolyl-L-arginine-para-nitroanilide (S2366: Quadratech) as substrate (essentially as described by McEuen et. al. Biochem Pharm, 1996, 52, pages 331-340). Assays are performed at room temperature using 0.5 mM substrate (2×Km) and the microplate is read on a microplate reader (Beckman Biomek Plate reader) at 405 nm wavelength.
Materials and Methods for Tryptase primary screen (Chromogenic assay)
S2366 (Stock solutions of 2.5 mM).
Purified recombinant beta Tryptase Stocks of 310 μg/mL. Protocol (Single point determination) • Add 60 μL of diluted substrate (final concentration of 500 μM in assay buffer) to each well • Add compound in duplicates, final concentration of 20 volume 20 • Add enzyme at a final concentration of 50 ng/mL in a volume of 20 • Total volume for each well is 100 • Agitate briefly to mix and incubate at room temp in the dark for 30 minutes • Read absorbencies at […] Each plate has the following controls: • Totals: 60 μL of substrate, 20 μL of buffer (with 0.2% final concentration of DMSO), • 20 μL of enzyme Non-specific: 60 μL of substrate, 40 μL of buffer (with 0.2% DMSO) Totals: 60 μL of substrate, 20 μL of buffer (No DMSO), 20 μL of enzyme Non-specific: 60 μL of substrate, 40 μL of buffer (No DMSO) Protocol (IC50 and Ki determination)
The protocol is essentially the same as above except that the compound is added in duplicates at the following final concentrations: 0.01, 0.03, 0.1, 0.3, 1, 3, 10 μM (All dilutions carried out manually). For every assay, whether single point or IC50 determination, a standard compound is used to derive IC50 for comparison. From the IC50 value, the Ki can be calculated using the following formula: Ki=IC50/(1+[Substrate]/Km).

The mark [1] stands for this setting: Tryptase Ki (nM), Ki calculated from IC50: Ki=IC50/(1+[Substrate]/Km), 0.5 mM substrate, room temperature.

As to `COCCn1cc(C(=O)N2CCC(c3cc(CN)ccc3F)CC2)c2cccc(OC(F)(F)F)c21` [Example 1, [4-(5-Aminomethyl-2-fluoro-phenyl)-piperidin-1-yl]-[1-(2-methoxy-ethyl)-7-trifluoromethoxy-1H-indol-3-yl]-methanone hydrochloride], under setting [1], the Ki is 47 nM. The same measure, in the same setting: under `Cc1cccc2c(C(=O)N3CCC(c4cccc(CN)c4)CC3)cn(CCN3CCOCC3)c12` [Example 2, [4-(3-Aminomethyl-phenyl)-piperidin-1-yl]-[7-methyl-1-(2-morpholin-4-yl-ethyl)-1H-indol-3-yl]-methanone hydrochloride] stands 234 nM. Regarding `Cc1cccc2c(C(=O)N3CCC(c4cc(CN)ccc4F)CC3)cn(CCN3CCOCC3)c12` [Example 3, [4-(5-Aminomethyl-2-fluoro-phenyl)-piperidin-1-yl]-[7-methyl-1-(2-morpholin-4-yl-ethyl)-1H-indol-3-yl]-methanone hydrochloride], the Ki under setting [1] is 109 nM. Same read-out and setting: under `Cc1cccc2c(C(=O)N3CCC(c4cc(CN)ccc4F)CC3)cn(CCCc3ccccc3)c12` [Example 4, [4-(5-Aminomethyl-2-fluoro-phenyl)-piperidin-1-yl]-[7-methyl-1-(3-phenyl-propyl)-1H-indol-3-yl]-methanone hydrochloride] stands 1300 nM. Take `Cc1cccc2c(C(=O)N3CCC(c4cc(CN)ccc4F)CC3)cn(CCc3ccccc3)c12` [Example 5, [4-(5-Aminomethyl-2-fluoro-phenyl)-piperidin-1-yl]-(7-methyl-1-phenethyl-1H-indol-3-yl)-methanone hydrochloride]: the Ki is, setting by setting: under setting [1], 96 nM and 56 nM; (Tryptase Ki (nM), additional value in parentheses tagged "8923" (code not explained)) 11 nM. As for `COCCn1cc(C(=O)N2CCC(c3cc(CN)ccc3F)CC2)c2cccc(C3CC3)c21` [Example 6, [4-(5-Aminomethyl-2-fluoro-phenyl)-piperidin-1-yl]-[7-cyclopropyl-1-(2-methoxy-ethyl)-1H-indol-3-yl]-methanone hydrochloride], under setting [1], the Ki is 20 nM. Regarding `Cc1cccc2c(C(=O)N3CCC(c4cc(CN)ccc4F)CC3)cn(CCCN3CCOCC3)c12` [Example 7, [4-(5-Aminomethyl-2-fluoro-phenyl)-piperidin-1-yl]-[7-methyl-1-(3-morpholin-4-yl-propyl)-1H-indol-3-yl]-methanone hydrochloride], the Ki under setting [1] is 139 nM.

`Cc1cccc2c(C(=O)N3CCC(c4cc(CN)ccc4F)CC3)cn(CCC3CCCCN3C)c12` (stereo not drawn) [Example 8, [4-(5-Aminomethyl-2-fluoro-phenyl)-piperidin-1-yl]-{7-methyl-1-[2-(1-methyl-piperidin-2-yl)-ethyl]-1H-indol-3-yl}-methanone hydrochloride]: the Ki under setting [1] was 35 nM.

As to `COCCn1cc(C(=O)N2CCC(c3cc(CN)ccc3C(F)F)CC2)c2cccc(C)c21` [Example 9, [4-(5-Aminomethyl-2-difluoromethyl-phenyl)-piperidin-1-yl]-[1-(2-methoxy-ethyl)-7-methyl-1H-indol-3-yl]-methanone hydrochloride], the Ki under setting [1] is 203 nM.

For the compound `Cc1cccc2c(C(=O)N3CCC(c4cc(CN)ccc4F)CC3)cn(CCCc3cccnc3)c12` [Example 10, [4-(5-Aminomethyl-2-fluoro-phenyl)-piperidin-1-yl]-[7-methyl-1-(3-pyridin-3-yl-propyl)-1H-indol-3-yl]-methanone dihydrochloride], the Ki under setting [1] was 175 nM. Turning to `COCCn1cc(C(=O)N2CCC(c3cc(CN)ccc3F)CC2)c2cccc(C(F)(F)F)c21` [Example 11, [4-(5-Aminomethyl-2-fluoro-phenyl)-piperidin-1-yl]-[1-(2-methoxy-ethyl)-7-trifluoromethyl-1H-indol-3-yl]-methanone hydrochloride], the inhibitory constant (Ki) under setting [1] is 56 nM.

Take `COCCn1cc(C(=O)N2CCC(c3cc(CN)ccc3F)CC2)c2cccc(C(F)F)c21` [Example 12, [4-(5-Aminomethyl-2-fluoro-phenyl)-piperidin-1-yl]-[7-difluoromethyl-1-(2-methoxy-ethyl)-1H-indol-3-yl]-methanone hydrochloride]: the Ki under setting [1] is 26 nM. With `Cc1cccc2c(C(=O)N3CCC(c4cc(CN)ccc4F)CC3)cn(CCN3CCCC3)c12` [Example 13, [4-(5-Aminomethyl-2-fluoro-phenyl)-piperidin-1-yl]-[7-methyl-1-(2-pyrrolidin-1-yl-ethyl)-1H-indol-3-yl]-methanone dihydrochloride], the Ki (Ki calculated from IC50: Ki=IC50/(1+[Substrate]/Km), 0.5 mM substrate, room temperature, read-out: Tryptase Ki) was 75 nM. For `COCCn1cc(C(=O)N2CCC(c3cc(CN)ccc3F)CC2)c2cccc(OC(F)F)c21` [Example 14, [4-(5-Aminomethyl-2-fluoro-phenyl)-piperidin-1-yl]-[7-difluoromethoxy-1-(2-methoxy-ethyl)-1H-indol-3-yl]-methanone hydrochloride], the Ki under setting [1] was 83 nM. For the compound `NCc1ccc(F)c(C2CCN(C(=O)c3cn(CCc4ccccc4)c4ccccc34)CC2)c1` [Example 15, [4-(5-Aminomethyl-2-fluoro-phenyl)-piperidin-1-yl]-(1-phenethyl-1H-indol-3-yl)-methanone hydrochloride], the Ki under setting [1] was 18 nM. The same measure, in the same setting: under `Cc1cccc2c(C(=O)N3CCC(c4cc(CN)ccc4F)CC3)cn(CCCF)c12` [Example 16, [4-(5-Aminomethyl-2-fluoro-phenyl)-piperidin-1-yl]-[1-(3-fluoro-propyl)-7-methyl-1H-indol-3-yl]-methanone hydrochloride] stands 97 nM; under `Cc1cccc2c(C(=O)N3CCC(c4cc(CN)ccc4F)CC3)cn(CCCO)c12` [Example 17, hydrochloride], 37 nM. Same read-out and setting: under `COCCn1cc(C(=O)N2CCC(c3cc(CN)ccc3F)CC2)c2cccc(C#N)c21` [Example 18, 3-[4-(5-Aminomethyl-2-fluoro-phenyl)-piperidine-1-carbonyl]-1-(2-methoxy-ethyl)-1H-indole-7-carbonitrile] stands 40 nM; under `COCCn1cc(C(=O)N2CCC(c3cc(CN)ccc3F)CC2)c2cccc(C3CCC3)c21` [Example 19, [4-(5-Aminomethyl-2-fluoro-phenyl)-piperidin-1-yl]-[7-cyclobutyl-1-(2-methoxy-ethyl)-1H-indol-3-yl]-methanone hydrochloride], 94 nM. Same read-out and setting: under `Cc1cccc2c(C(=O)N3CCC(c4cc(CN)ccc4F)CC3)cn(CCO)c12` [Example 20, [4-(5-Aminomethyl-2-fluoro-phenyl)-piperidin-1-yl]-[1-(2-hydroxy-ethyl)-7-methyl-1H-indol-3-yl]-methanone hydrochloride] stands 19 nM; under `Cc1cccc2c(C(=O)N3CCC(c4cc(CN)ccc4F)CC3)cn(CCOCCO)c12` [Example 21, [4-(5-Aminomethyl-2-fluoro-phenyl)-piperidin-1-yl]-{1-[2-(2-hydroxy-ethoxy)-ethyl]-7-methyl-1H-indol-3-yl}-methanone hydrochloride], 28 nM.

For the compound `NCc1ccc(F)c(C2CCN(C(=O)c3cn(CCO)c4c(OC(F)(F)F)cccc34)CC2)c1` [Example 22, [4-(5-Aminomethyl-2-fluoro-phenyl)-piperidin-1-yl]-[1-(2-hydroxy-ethyl)-7-trifluoromethoxy-1H-indol-3-yl]-methanone hydrochloride], under setting [1], the Ki is 390 nM. For `COCCn1cc(C(=O)N2CCC(c3cc(CN)ccc3OCC(=O)OC)CC2)c2cccc(C)c21` [Example 23, (4-Aminomethyl-2-{1-[1-(2-methoxy-ethyl)-7-methyl-1H-indole-3-carbonyl]-piperidin-4-yl}-phenoxy)-acetic acid methyl ester hydrochloride], the Ki under setting [1] is 42 nM. On the same count and under the same terms, under `COCCn1cc(C(=O)N2CCC(c3cc(CN)ccc3OCC(=O)OC)CC2)c2cccc(OC(F)(F)F)c21` [Example 24, (4-Aminomethyl-2-{1-[1-(2-methoxy-ethyl)-7-trifluoromethoxy-1H-indole-3-carbonyl]-piperidin-4-yl}-phenoxy)-acetic acid methyl ester hydrochloride] stands 98 nM; under `COCCn1cc(C(=O)N2CCC(c3cc(CN)ccc3OCC(=O)N(C)C)CC2)c2cccc(C)c21` [Example 25, 2-(4-Aminomethyl-2-{1-[1-(2-methoxy-ethyl)-7-methyl-1H-indole-3-carbonyl]-piperidin-4-yl}-phenoxy)-N,N-dimethyl-acetamide hydrochloride], 672 nM. Turning to `CNC(=O)COc1ccc(CN)cc1C1CCN(C(=O)c2cn(CCOC)c3c(C)cccc23)CC1` [Example 26, 2-(4-Aminomethyl-2-{1-[1-(2-methoxy-ethyl)-7-methyl-1H-indole-3-carbonyl]-piperidin-4-yl}-phenoxy)-N-methyl-acetamide hydrochloride], the Ki under setting [1] was 306 nM.

What is called Ki is the equilibrium dissociation constant of an inhibitor or competing ligand from its target.
